Assays:
[1] = system: skin of hairless mice (Hoes: HR-1); assay: Ultraviolet B irradiated hairless mouse skin, external application, histology (hematoxylin and eosin); assay type: in vivo
Experimental: Ten 8-weeks old female hairless mice (Hoes: HR-1) were previously bred for 1 week. Five mice (mouse A1, mouse B1, mouse C1, mouse D1, mouse E1) were irradiated at the back with ultraviolet B (UV) of 300 mJ (about 3 MED (minimal erythema dose)), and five mice (mouse A2, mouse B2, mouse C2, mouse D2, mouse E2) were not irradiated with ultraviolet ray. Immediately after irradiation with ultraviolet ray and 24 hours after irradiation with ultraviolet ray, leptomycin B was administered by externally applying a solution of a concentration of 10 μg/ml (20 μM) to mouse B1 and mouse B2, a solution of a concentration of 1 μg/ml (2 μM) to mouse C1 and mouse C2, a solution of a concentration of 100 ng/ml (200 nM) to mouse D1 and mouse D2 and a solution of a concentration of 10 ng/ml (20 nM) to mouse E1 and mouse E2, each in an amount of 0.1 ml by a brush, as a solution containing leptomycin B dissolved in 70% ethanol. To mouse A1 and mouse A2, about 0.1 ml of 70% ethanol was applied by a brush. Then, skins were collected from mouse A1 to mouse E1 irradiated with ultraviolet ray 48 hours after irradiation and mouse A2 to mouse E2 not irradiated with ultraviolet ray. The collected skins were fixed with formalin and embedded in paraffin, then, the slices were stained with hematoxylin and eosin. Slices of skins collected from mouse A1, mouse B1, mouse C1, mouse D1 and mouse E1 and stained and slices of skins collected from mouse A2, mouse B2, mouse C2, mouse D2 and mouse E2 and stained were observed by ECLIPSE E1000M optical microscope (manufactured by NIKON), and the results are shown in FIG. 5. In FIG. 5, A1 to E1 correspond to slices of skins collected from mouse A1 to mouse E1 and stained, respectively, and A2 to E2 correspond to slices of skins collected from mouse A2 to mouse E2 and stained, respectively, and the length of a bar indicates 100 μm.

[2] = system: MMP-9; assay: Detection of MMP-2 and MMP-9 by gelatin zymography in conditioned media of cultured human foreskin keratinocytes; assay type: cell-based; settings: HFKs; for concentration of LMB in the medium at which the production of MMP-9 is inhibited: 24 hours
Experimental: A foreskin of a neonate was treated at 4° C. for 16 hours by a disperse having a casein decomposition activity of 25.0 caseinolytic units/ml. Epidermal was peeled from dermis using a forceps, then, the epidermal was treated with 0.05% trypsin for 5 minutes. The separated human foreskin keratinocytes (HFKs) were allowed to incubate at 37° C. in a plate having a keratinocyte-SFM medium (manufactured by Invitrogen), and sub-cultured over three generations. Then, into four plates obtained by sub-culturing human foreskin keratinocytes (HFKs) over three generations, LMB was added so that the concentrations in the medium were 0 nM, 0.4 nM, 2 nM and 10 nM, respectively, further, allowed to incubate at 37° C. for 24 hours. Then, four conditioned media of the keratinocyte-SFM medium were collected from the four plates, and stored at −30° C. until use in the following detection of MMP-2 and MMP-9 by a gelatin zymography method.
Prior to detection of MMP-2 and MMP-9 by a gelatin zymography method, four conditioned media collected in <Culturing of human epidermal keratinocyte cell> were all allowed to incubate at 35° C. for 1 hour. Then, the above-mentioned conditioned media were dissolved in a solution of pH 7.4 containing 0.05 M Tris-HCl, 5 mM CaCl2, 1% SDS (sodium dodecyl-sulfate) and 5% glycerol, respectively, and the solutions were used as samples for a gelatin zymography method. MMP-2 and MMP-9 were separated from the samples by an SDS-PAGE method using 7.5% polyacrylamide gel containing 0.5% gelatin. After separation by an SDS-PAGE method, the separated gel was washed with a solution containing 2.5% Triton X-100 for 1 hour, to remove SDS. For allowing MMP-2 and MMP-9 separated in the separated gel to decompose gelatin in the separated gel, the separated gel was allowed to incubate at 35° C. for a given time in a buffer solution for reaction (standard conditions: 0.05 M Tris-HCl (pH 7.4)/0.15 M NaCl/5 MM CaCl2/0.02% NaN3). Staining of the separated gel was conducted using a staining solution containing 0.1% Amideblack B-10, and decolorization was conducted using a decolorization solution containing 10 vol % of acetic acid and 30 vol % of methanol.
(§1) Culturing of a human epidermal keratinocyte and detection of MMP-2 and MMP-9 by a gelatin zymography method were conducted by the same manner as in Example 1 except that LMB was added into four plates obtained by sub-culturing human foreskin keratinocytes (HFKS) over three generations, so that the concentrations in the medium were 0 nM, 0.4 nM, 2 nM and 10 nM, respectively, and a calcium chloride aqueous solution was added so that the four concentrations of Ca^+ in the medium were all 1.5 mM, instead of adding LMB into four plates obtained by sub-culturing human foreskin keratinocytes (HFKs) over three generations, so that the concentrations in the medium were 0 nM, 0.4 nM, 2 nM and 10 nM, respectively, in culturing of human epidermal keratinocyte.
as §1, with “(HFKs)” for “(HFKS)”, “TGF-β” for “a calcium chloride aqueous solution”, “TGF-β” for “Ca^+”, “1 ng/ml,” for “1.5 mM,”, “keratinocytes. […]” for “keratinocyte.”

[3] = system: mRNA of human MMP-9 gene; assay: Detection of mRNA of human MMP-9 gene and human GAPDH gene by RT-PCR in human foreskin keratinocytes; assay type: cell-based; settings: 10 nM LMB
Experimental: A foreskin of a neonate was treated at 4° C. for 16 hours by a disperse having a casein decomposition activity of 25.0 caseinolytic units/ml. Epidermal was peeled from dermis using a forceps, then, the epidermal was treated with 0.05% trypsin for 5 minutes. The separated human foreskin keratinocytes (HFKs) were allowed to incubate at 37° C. in a plate having a keratinocyte-SFM medium (manufactured by Invitrogen), and sub-cultured over three generations. Then, into two plates obtained by sub-culturing human foreskin keratinocytes (HFKS) over three generations, LMB was added so that the concentrations in the medium were 0 nM and 10 nM, respectively, further, allowed to incubate at 37° C. for 24 hours.
Extraction of all RNAs from cultured human foreskin keratinocytes (HFKs) was conducted according to a method of Wachi et al. (Wachi et al. (1995) FEBS Lett. 36B, 215-219), and the extracted all RNAs were stored at −80° C. in the form of solution having a concentration of 1 μg/ml. A RT-PCR method was conducted using TaKaRa RNA PCR kit (manufactured by TaKaRa). For amplifying 277 base pairs of cDNA for human MMP-9, a sense primer (SEQ ID No. 1) was used for the 5′ end situated at 116 to 136 base pairs, and an antisense primer (SEQ ID No. 2) was used for the 3′ end situated at 372 to 392 base pairs. For amplifying 478 base pairs of cDNA for human GAPDH, a sense primer (SEQ ID No. 3) was used for the 5′ end situated at 547 to 566 base pairs, and an antisense primer (SEQ ID No. 4) was used for the 3′ end situated at 1005 to 1024 base pairs. Reverse transcription of RNA was conducted by incubating at 42° C. for 1 hour. Incubation in PCR of cDNA obtained by reverse transcription was conducted according to the following temperature profile. Namely, for every one cycle, modification of cDNA was conducted at 94° C. for 2 minutes, annealing of a primer was conducted at 60° C. for 30 seconds, and synthesis of a DNA chain by a DNA polymerase was conducted at 72° C. for 1 minute. A solution obtained after 30 cycles was separated, and electrophoresis was conducted using an agarose gel containing ethidium bromide, and the resulted band was observed under ultraviolet ray.
Culturing of a human epidermal keratinocyte and detection of mRNA of a human MMP-9 gene and mRNA of a human GAPDH gene by a RT-PCR method were conducted by the same manner as in Example 6 except that LMB was added into two plates obtained by sub-culturing human foreskin keratinocytes (HFKs) over three generations, so that the concentrations in the medium were 0 nM and 10 nM, respectively, and a calcium chloride aqueous solution was added so that the two concentrations of Ca^+ in the medium were all 1.5 mM, instead of adding LMB into two plates obtained by sub-culturing human foreskin keratinocytes (HFKs) over three generations, so that the concentrations in the medium were 0 nM and 10 nM, respectively, in culturing of human epidermal keratinocytes. […]

[4] = system: P388 cell, Lewis Landa carcinoma cell, B16 melanoma cell, Erich carcinoma cell; settings: tumor cells transplanted to mouse; anti-tumor agent containing leptomycin B, parenteral or oral; cited from earlier work
[5] = system: MMP-9 promoter sequence; assay: Measurement of MMP-9 promoter transcription activity by luciferase assay in human foreskin keratinocytes; assay type: cell-based; settings: 10 nM LMB; for transcription activity of MMP-9: 24 hours; for Promoter activity suppressed to (fraction of no LMB addition): vector-1 containing KRE-M9 (−73 to +16)
Experimental: A foreskin of a neonate was treated at 4° C. for 16 hours by a disperse having a casein decomposition activity of 25.0 caseinolytic units/ml. Epidermal was peeled from dermis using a forceps, then, the epidermal was treated with 0.05% trypsin for 5 minutes. The separated human foreskin keratinocytes (HFKs) were allowed to incubate at 37° C. in a 24-well plate having a keratinocyte-SFM medium (manufactured by Life Technologies) containing 0.09 mM Ca^+, and sub-cultured over three generations.
A −73 to +16 base sequence containing KRE-M9 of an MMP-9 promoter sequence and a −56 to +16 base sequence containing no KRE-M9 were inserted into pGL3-basic vector (manufactured by Promega) which is a luciferase expression vector containing a luciferase gene according to a method of Kobayashi et al. (Kobayashi et al. (2001) EMBO Rep. 2, 604 to 608), to prepare vector-1 and vector-2.
Using the vector-1 and vector-2 and Fugene 6 (manufactured by Roche) which is a reagent for gene introduction, a vector-1 solution and a vector-2 solution each having a DNA concentration of 3 μg/1 ml were prepared, respectively. Then, the vector solution 1 was added to solutions in 12 wells and the vector solution 2 was added to solutions in the remaining 12 wells each at 37° C., of HFKs culture solutions in the 24-well plates obtained in <Culturing of human epidermal keratinocyte> and gene introduction was performed, further, 10 nM LMB was added to solutions in 6 wells to give a 6-well LMB added plate 1 and LMB was not added to solutions in the remaining 6 wells to give a 6-well LMB no-addition plate 1, of the 12 wells obtained by addition of the vector-1 solution, and 10 nM LMB was added to solutions in 6 wells to give a 6-well LMB added plate 2 and LMB was not added to solutions in the remaining 6 wells to give a 6-well LMB no-addition plate 2, of the 12 wells obtained by addition of the vector-2 solution, then, they were allowed to stand still for 3 hours. Gene introduction of a luciferase gene effected as described above induces the production of MMP-9 and the production of luciferase, and by measuring the light emitting intensity in a light emitting reaction by luciferase by a micro press counter, the production of MMP-9 can be monitored.
Measurement of the transcription activity was conducted by a luciferase assay. The activity of luciferase was measured by Luciferase assay system (manufactured by Promega). As a micro press counter, Microbeta (manufactured by Perkin-Elmer) was used. In this measurement, the total transcription activity after 12 hours was measured using 3 wells among 6 wells, further, the total transcription activity after 24 hours was measured using the remaining 3 wells, each using the 6-well LMB added plate 1, 6-well LMB no-addition plate 1, 6-well LMB added plate 2 and 6-well LMB no-addition plate 2. […] The standard deviation is shown by error bar. […]

[6] = UVB 300 mJ irradiated mice B1 to E1, external application 10 μg/ml to 10 ng/ml in 70% ethanol, 0.1 ml, at 0 and 24 hours, skin at 48 hours

Which results are given for CCC(=C/[C@H](C)C/C=C/C(C)=C/[C@@H](C)C(=O)[C@@H](C)[C@H](O)[C@@H](C)C/C(C)=C/C(=O)O)/C=C/[C@@H]1OC(=O)C=C[C@@H]1C [LMB, Leptomycin B]?
inflammatory cell infiltration in dermis and subcutaneous tissue [1, 6]: suppressed; keratinization of epidermal [1, 6]: normal keratinization is manifested in epidermal in a concentration-dependent manner; change of skin not irradiated with ultraviolet ray ([1]; mice B2 to E2 not irradiated, external application 10 μg/ml to 10 ng/ml in 70% ethanol): significant change was not found; specificity of inhibition of the production of MMP-9 as compared with MMP-2 ([2]; gelatin zymography, FIG. 1): inhibits the production of MMP-9 more specifically as compared with MMP-2; concentration of LMB in the medium at which the production of MMP-9 is inhibited ([2]; stimulating differentiation by TGF-β 1 ng/ml, FIG. 1 (C)): ≥ 2 nM; concentration of LMB in the medium at which the production of MMP-9 is inhibited ([2]; stimulating differentiation by calcium at a high concentration (1.5 mM), FIG. 1 (B)): ≥ 2 nM; concentration of LMB in the medium at which the production of MMP-9 is inhibited ([2]; stimulating inflammation by IL-1α 10^−10 M, FIG. 1 (E)): ≥ 2 nM; concentration of LMB in the medium at which the production of MMP-9 is inhibited ([2]; stimulating inflammation by TNF-α 10 ng/ml, FIG. 1 (D)): ≥ 2 nM; concentration of LMB in the medium at which the production of MMP-9 is inhibited ([2]; under no stimulation, FIG. 1 (A)): ≥ 2 nM; production of MMP-9 (mRNA) as compared with GAPDH ([3]; stimulation with IL-1α 10^−10 M, Sample 9 and 10 in FIG. 2): inhibited; production of MMP-9 (mRNA) as compared with GAPDH ([3]; stimulation with TGF-β 1 ng/ml, Sample 5 and 6 in FIG. 2): inhibited; production of MMP-9 (mRNA) as compared with GAPDH ([3]; stimulation with TNF-α 10 ng/ml, Sample 7 and 8 in FIG. 2): inhibited; production of MMP-9 (mRNA) as compared with GAPDH ([3]; stimulation with calcium at a high concentration (1.5 mM), Sample 3 and 4 in FIG. 2): inhibited; production of MMP-9 (mRNA) as compared with GAPDH ([3]; under no stimulation, 24 hours, Sample 1 and 2 in FIG. 2): inhibited; anti-tumor action [4]: strong anti-tumor action; transcription activity of MMP-9 ([5]; base sequence 1 (−80 to +16, KRE-M9 and TRE), FIG. 4 (A)): suppressed; transcription activity of MMP-9 ([5]; base sequence 2 (4-base substitution of KRE-M9 in base sequence 1), FIG. 4 (A)): suppressed; transcription activity of MMP-9 ([5]; base sequence 6 (base substitution of both KRE-M9 and TRE), FIG. 4 (B)): suppressed; Promoter activity suppressed to (fraction of no LMB addition) ([5]; 12 hours after gene introduction): about one-fifth; Promoter activity suppressed to (fraction of no LMB addition) ([5]; 24 hours after gene introduction): about one-seventh

— US20080119558A1, “Drug for Inhibiting Production of Matrix Metalloprotease-9” (Japan Science And Technology Agency, priority 2002, published 2008)
